Reference: US9526785B2, “Pharmaceuticals for oral delivery” (Enteris BioPharma, Inc., priority 2013, dated 2016)
Where two headings read alike, the source gives them in different places.

Assay: Tigecycline plasma PK and % F after PO enteric-coated capsule in dogs
Type: in vivo, Beagle dogs
Settings: female, beagle, dog, plasma, po; for concentration at 2 hr / concentration at 3 hr / concentration at 4 hr / concentration at 5 hr / concentration at 6 hr / concentration at 8 hr / concentration at 10 hr / concentration at 24 hr: PO 30 mg unformulated enteric-coated capsule; for concentration at 0 min: Time (min) 0.0; for concentration at 0.3 min: Time (min) 0.3; for concentration at 24 min: Time (min) 24.0; for bioavailability: read-out: % F
Procedure: Adult beagle dogs weighing approximately 9 to 15 kg were used in the study. […] Room temperature was set to be maintained between approximately 20±5° C. Relative humidity was monitored but not controlled.
TEKLAD™ Certified Canine Diet was provided once daily in amounts (˜400 grams) appropriate for the size and age of the animals. Tap water was available ad libitum via automatic watering device or water bowls.
Oral dosing of enteric-coated capsules was accomplished by administering them to the back of the dog's mouth, followed by a chase of 5 mL water to ensure swallowing.
Water was provided ad libitum. […] Subsequently, each group of animals was dosed based on the protocol, i.e. either IV, or PO by capsule.
Minocycline (VWR international) was used as an internal standard. Sample processing/clean-up of plasma samples was carried out offline by protein precipitation with acidified acetonitrile using 0.5% trifluoroacetic acid (TFA).
The HPLC system consisted of Shimadzu SIL-HTc HPLC system equipped with dual Shimadzu LC-10ADvp isopumps, a Shimadzu CTO-10ASvp column temperature controller and a Shimadzu SPD-10Avp variable wavelength detector. […] Mobile phase A consisted of 23 mM phosphate buffer pH 2.5 with 4 mM 1-octanesulfonic acid, while mobile phase B consisting of 90% acetonitrile, 10% water, with 2 mM 1-octanesulfonic acid. […] The total runtime was 18 minutes per sample. The mobile phase flow rate was 1.2 mL/min. Detection was performed using the SPD-10Avp variable wavelength detector set at 350 nm, with a sensitivity of 0.001 aufs.
The samples were then centrifuged under refrigeration at 13 k rpm for 5 minutes. The supernatant was taken and the liquid removed to dryness under nitrogen in a turbovap. The dried extract was reconstituted in 60 μL of mobile phase A and the suspension was further centrifuged at 5 k rpm for 5 minutes to pellet any insoluble matter. The resulting supernatant was then injected onto the LC.
The unknown concentration in dog plasma samples was determined by interpolation of the peak area ratios of analyte:internal standard versus the ratio of their nominal concentrations into the regression line obtained from calibration standards spiked in pooled dog plasma. No regression weighting was used for the calculations. […] The calibration curve covered the range of 0.05 μg/mL to 5 μg/mL. […]
The capsules were enterically coated using a standard preclinical protocol to 10% weight gain. Two studies were conducted.

[1] = 30 mg, Tigecycline Plasma Concentration, SC430, individual dogs
[2] = 30 mg, Tigecycline Plasma Concentration, SC430, mean
[3] = 30 mg, Tigecycline Plasma Concentration, PO 30 mg enteric-coated capsule with 500 mg CA and 100 mg LLC, SC430, individual dogs
[4] = 30 mg, Tigecycline Plasma Concentration, PO 30 mg enteric-coated capsule with 500 mg CA and 100 mg LLC, SC430, mean

Q: Which concentration at 2 hr [1] does the source give for `CN(C)c1cc(NC(=O)CNC(C)(C)C)c(O)c2c1C[C@H]1C[C@H]3[C@H](N(C)C)C(O)=C(C(N)=O)C(=O)[C@@]3(O)C(O)=C1C2=O` [Tigecycline] here?
A: 0 ng/mL

Q: And the concentration at 2 hr [2]?
A: 0 ng/mL

Q: And the concentration at 3 hr [1]?
A: 0 ng/mL

Q: What about the concentration at 3 hr [2] of the same molecule?
A: 0 ng/mL

Q: What about the concentration at 4 hr [1] of the same molecule?
A: 0 ng/mL

Q: And the concentration at 4 hr [2]?
A: 0 ng/mL

Q: And the concentration at 5 hr [1]?
A: 0 ng/mL

Q: What about the concentration at 5 hr [2] of the same molecule?
A: 0 ng/mL

Q: And the concentration at 6 hr [1]?
A: 0 ng/mL

Q: What about the concentration at 6 hr [2] of the same molecule?
A: 0 ng/mL

Q: What about the concentration at 8 hr [1] of the same molecule?
A: 0 ng/mL

Q: And the concentration at 8 hr [2]?
A: 0 ng/mL

Q: And the concentration at 10 hr [1]?
A: 0 ng/mL

Q: What about the concentration at 10 hr [2] of the same molecule?
A: 0 ng/mL

Q: What about the concentration at 0 min [3] of the same molecule?
A: 0 ng/mL

Q: And the concentration at 0 min [4]?
A: 0 ng/mL

Q: And the concentration at 0.3 min [3]?
A: 0 ng/mL

Q: What about the concentration at 0.3 min [4] of the same molecule?
A: 0 ng/mL

Q: What about the concentration at 0.7 min (30 mg, Tigecycline Plasma Concentration, Time (min) 0.7, PO 30 mg enteric-coated capsule with 500 mg CA and 100 mg LLC, SC430, mean) of the same molecule?
A: 26.4 ng/mL

Q: What about the concentration at 1 min (30 mg, Tigecycline Plasma Concentration, Time (min) 1.0, PO 30 mg enteric-coated capsule with 500 mg CA and 100 mg LLC, SC430, mean) of the same molecule?
A: 49 ng/mL

Q: What about the concentration at […] (30 mg, Tigecycline Plasma Concentration, Time (min) 1.3, PO 30 mg enteric-coated capsule with 500 mg CA and 100 mg LLC, SC430, mean) of the same molecule?
A: 51.2 ng/mL

Q: And the concentration at […] (30 mg, Tigecycline Plasma Concentration, Time (min) 1.7, PO 30 mg enteric-coated capsule with 500 mg CA and 100 mg LLC, SC430, mean)?
A: 63.6 ng/mL

Q: What about the concentration at 2 min (30 mg, Tigecycline Plasma Concentration, Time (min) 2.0, PO 30 mg enteric-coated capsule with 500 mg CA and 100 mg LLC, SC430, mean) of the same molecule?
A: 83.5 ng/mL

Q: What about the concentration at […] (30 mg, Tigecycline Plasma Concentration, Time (min) 2.3, PO 30 mg enteric-coated capsule with 500 mg CA and 100 mg LLC, SC430, mean) of the same molecule?
A: 72.1 ng/mL

Q: And the concentration at […] (30 mg, Tigecycline Plasma Concentration, Time (min) 2.7, PO 30 mg enteric-coated capsule with 500 mg CA and 100 mg LLC, SC430, mean)?
A: 59.1 ng/mL

Q: And the concentration at 3 min (30 mg, Tigecycline Plasma Concentration, Time (min) 3.0, PO 30 mg enteric-coated capsule with 500 mg CA and 100 mg LLC, SC430, mean)?
A: 49.9 ng/mL

Q: And the concentration at […] (30 mg, Tigecycline Plasma Concentration, Time (min) 3.3, PO 30 mg enteric-coated capsule with 500 mg CA and 100 mg LLC, SC430, mean)?
A: 42.4 ng/mL

Q: And the concentration at […] (30 mg, Tigecycline Plasma Concentration, Time (min) 3.7, PO 30 mg enteric-coated capsule with 500 mg CA and 100 mg LLC, SC430, mean)?
A: 40.6 ng/mL

Q: And the concentration at 4 min (30 mg, Tigecycline Plasma Concentration, Time (min) 4.0, PO 30 mg enteric-coated capsule with 500 mg CA and 100 mg LLC, SC430, mean)?
A: 36.6 ng/mL

Q: What about the concentration at […] (30 mg, Tigecycline Plasma Concentration, Time (min) 4.5, PO 30 mg enteric-coated capsule with 500 mg CA and 100 mg LLC, SC430, mean) of the same molecule?
A: 33.5 ng/mL

Q: What about the concentration at 5 min (30 mg, Tigecycline Plasma Concentration, Time (min) 5.0, PO 30 mg enteric-coated capsule with 500 mg CA and 100 mg LLC, SC430, mean) of the same molecule?
A: 31.8 ng/mL

Q: What about the concentration at […] (30 mg, Tigecycline Plasma Concentration, Time (min) 5.5, PO 30 mg enteric-coated capsule with 500 mg CA and 100 mg LLC, SC430, mean) of the same molecule?
A: 37.9 ng/mL

Q: And the concentration at 6 min (30 mg, Tigecycline Plasma Concentration, Time (min) 6.0, PO 30 mg enteric-coated capsule with 500 mg CA and 100 mg LLC, SC430, mean)?
A: 21.2 ng/mL

Q: And the concentration at 8 min (30 mg, Tigecycline Plasma Concentration, Time (min) 8.0, PO 30 mg enteric-coated capsule with 500 mg CA and 100 mg LLC, SC430, mean)?
A: 7.27 ng/mL

Q: And the concentration at 10 min (30 mg, Tigecycline Plasma Concentration, Time (min) 10.0, PO 30 mg enteric-coated capsule with 500 mg CA and 100 mg LLC, SC430, mean)?
A: 2.58 ng/mL

Q: What about the concentration at 24 min [3] of the same molecule?
A: 0 ng/mL

Q: What about the concentration at 24 min [4] of the same molecule?
A: 0 ng/mL

Q: What about the concentration at 24 hr [1] of the same molecule?
A: 0 ng/mL

Q: And the concentration at 24 hr [2]?
A: 0 ng/mL

Q: What about the Cmax (30 mg, target dose 30 mg, enterically coated capsule, excluding animal 5256, read-out: Observed Mean Cmax) of the same molecule?
A: 121 ng/mL

Q: What about the AUC(0-t) (30 mg, target dose 30 mg, enterically coated capsule, time scale adjusted to 4 hours, excluding animal 5256, read-out: Observed AUC(0-t)) of the same molecule?
A: 214 ng·h/mL

Q: And the bioavailability (30 mg)?
A: 14.9%

Q: What about the AUC(0-t) (30 mg, read-out: AUC(0-t)) of the same molecule?
A: 367 ng·h/mL

Q: And the Cmax (30 mg, read-out: Cmax)?
A: 121 ng/mL

Q: And the bioavailability (45 mg, 45 mg Formulated (500 mg CA, 100 mg LLC) enteric coated capsule, Study 2 (SC430), mean (% CV))?
A: 15.5%

Q: What about the AUC(0-t) (45 mg, 45 mg Formulated (500 mg CA, 100 mg LLC) enteric coated capsule, Study 2 (SC430), mean (% CV), read-out: AUC(0-t)) of the same molecule?
A: 574 ng·h/mL

Q: And the Cmax (45 mg, 45 mg Formulated (500 mg CA, 100 mg LLC) enteric coated capsule, Study 2 (SC430), mean (% CV), read-out: Cmax)?
A: 177 ng/mL
